Test results from US12559474B2, “Triazine derivatives having virus replication inhibitory activity and pharmaceutical composition comprising the same” (priority 2021, dated 2026).
Where two headings read alike, the source gives them in different places.

Experiments:
[1] = system: SARS-CoV-2; test: microbe, parasite or virus in culture; assay type: cell-based; settings: Severe acute respiratory syndrome coronavirus 2, VeroE6/TMPRSS2, 72 h, 50% SARS-CoV-2 infected cell death inhibitory concentration, VeroE6/TMPRSS2 cells, 3 days culture
[2] = biological target: SARS-CoV-2 3CL protease (Severe acute respiratory syndrome coronavirus 2, UniProt P0DTD1); test: biochemical; settings: 50% SARS-CoV-2 3CL protease inhibitory concentration, read-out: IC50

| Compound | EC50 ([1]; class symbols) | IC50 ([2]; given as class symbols) | EC50 ([1]; CellTiter-Glo 2.0) | IC50 ([2]; RapidFire MS) |
| --- | --- | --- | --- | --- |
| Cc1cncc(-n2c(=O)nc(Nc3cc4cn(C)nc4cc3Cl)n(Cc3cc(C#N)ccc3CCC(C)(C)O)c2=O)c1 [II-0024] | 1 to 10 µM | < 0.1 µM |  |  |
| Cc1cncc(-n2c(=O)nc(Nc3cc4c(cc3Cl)nc(C(F)F)n4C)n(Cc3ccc(F)c(C#N)c3)c2=O)c1 [II-0106] | 1 to 10 µM | < 0.1 µM |  |  |
| COc1ccc(Nc2nc(=O)n(-c3cncc(C)c3)c(=O)n2Cc2ccc(F)c(C#N)c2)c(Br)c1 [II-0174] | < 1 µM | < 0.1 µM |  |  |
| Cn1cnc(Cn2c(=O)nc(Nc3cc4cn(C)nc4cc3Br)n(Cc3cc(F)c(F)c(F)c3)c2=O)n1 [II-0448] | < 1 µM | < 0.1 µM |  |  |
| Cc1cncc(-n2c(=O)nc(Nc3cc4cn(C)nc4cc3Cl)n(Cc3ccc(F)c(C#N)c3)c2=O)c1F [II-0265] | < 1 µM | < 0.1 µM |  |  |
| Cc1nc2cc(Cn3c(=O)nc(Nc4ccc5c(c4)CCO5)n(Cc4cc(F)c(F)c(F)c4)c3=O)c(=O)[nH]c2s1 [II-0341] | 1 to 10 µM | < 0.1 µM |  |  |
| CNc1nc2cc(Cl)c(Nc3nc(=O)n(-c4cncc(C)c4)c(=O)n3Cc3cc(C#N)ccc3C)cc2s1 [II-0395] | < 1 µM | < 0.1 µM |  |  |
| Cn1cnc(Cn2c(=O)nc(Nc3cc4cn(C)nc4cc3F)n(Cc3cc(F)c(F)c(Cl)c3)c2=O)n1 [II-0060] | 1 to 10 µM | < 0.1 µM |  |  |
| Cn1ccc(-c2ccnc(Cn3c(=O)nc(Nc4cc5cn(C)nc5cc4Cl)n(Cc4cc(F)c(F)cc4F)c3=O)c2)n1 [II-0247] | < 1 µM | < 0.1 µM |  |  |
| Cc1cncc(-n2c(=O)nc(Nc3cc4cn(C)nc4cc3Cl)n(Cc3cccc(F)c3Cl)c2=O)c1 [II-0188] | < 1 µM | < 0.1 µM |  |  |
| COc1ccc(Nc2nc(=O)n(Cc3ccc[nH]c3=O)c(=O)n2Cc2cc(Cl)c(F)c(Cl)c2)cc1 [Compound I-0227] | 1 to 10 µM | < 0.1 µM |  |  |
| O=c1[nH]cccc1Cn1c(=O)nc(N2Cc3ccccc3C2)n(Cc2cc(F)c(F)c(F)c2)c1=O [Compound I-0180] |  |  | 6.41 µM | 0.058 µM |
| COc1ccc(Nc2nc(=O)n(Cc3cc4ccsc4[nH]c3=O)c(=O)n2Cc2cc(F)c(F)c(F)c2)cc1 [Compound I-0081] | < 1 µM | < 0.1 µM |  |  |
| Cc1cncc(-n2c(=O)nc(Nc3cc4cn(C)nc4cc3Cl)n(Cc3ccc(F)c(Cl)c3)c2=O)c1 [II-0442] | < 1 µM | < 0.1 µM |  |  |
| Cc1cncc(-n2c(=O)nc(Nc3cnc(OCC(F)F)cc3C)n(Cc3ccc(F)c(C#N)c3)c2=O)c1 [II-0123] | 1 to 10 µM | < 0.1 µM |  |  |
| O=C1CC=CC=C1Cn1c(=O)nc(Nc2cc3cn(C4CCOCC4)nc3cc2Cl)n(Cc2cc(F)c(F)c(F)c2)c1=O [Compound I-0451] | 1 to 10 µM | < 0.1 µM |  |  |
| COc1ccc(Nc2nc(=O)n(-c3cncc(C)c3)c(=O)n2Cc2ccc(F)c(C#N)c2)c(F)c1 [II-0180] | < 1 µM | < 0.1 µM |  |  |
| COc1ccc(Nc2nc(=O)n(Cc3cc(-c4ccccc4)c[nH]c3=O)c(=O)n2Cc2cc(F)c(F)c(F)c2)cc1 [Compound I-0318] | 1 to 10 µM | 0.1 to 1 µM | 1.36 µM | 0.11 µM |
| CC(C)n1cc2cc(Nc3nc(=O)n(Cc4cccnc4O)c(=O)n3Cc3cc(F)c(F)c(F)c3)c(Cl)cc2n1 [Compound I-0366] | 1 to 10 µM | < 0.1 µM |  |  |
| COc1ccc(Nc2nc(=O)n(Cc3ccc[nH]c3=O)c(=O)n2Cc2cc(F)c(F)c(Cl)c2)cc1 [Compound I-0254] | 1 to 10 µM | < 0.1 µM |  |  |
| Cn1cc2cc(Nc3nc(=O)n(-c4cnc5ccccn45)c(=O)n3Cc3cc(F)c(F)c(F)c3)c(Cl)cc2n1 [II-0391] | 1 to 10 µM | < 0.1 µM |  |  |

| Compound | EC50 ([1]; class symbols) | IC50 ([2]; given as class symbols) | EC50 ([1]; CellTiter-Glo 2.0) | IC50 ([2]; RapidFire MS) |
| --- | --- | --- | --- | --- |
| Cn1cnc(Cn2c(=O)cc(Nc3cc4cn(CC(F)F)nc4cc3Cl)n(Cc3cc(F)c(F)c(F)c3)c2=O)n1 [II-0429] | 1 to 10 µM | < 0.1 µM |  |  |
| COc1ccc(Nc2nc(=O)n(Cc3ccc[nH]c3=O)c(=O)n2Cc2ccc(Cl)s2)cc1 [Compound I-0321] | < 1 µM | 1 to 10 µM |  | 2.1 µM |
| Cn1cnc(Cn2c(=O)nc(Nc3cc4cn(C5CC5)nc4cc3Cl)n(Cc3cc(F)c(F)cc3F)c2=O)n1 [II-0527] | < 1 µM | < 0.1 µM |  |  |
| Cc1cncc(-n2c(=O)nc(Nc3cc4c(cc3Cl)nc(C)n4C)n(Cc3ccc(F)c(C#N)c3)c2=O)c1 [II-0350] | 1 to 10 µM | < 0.1 µM |  |  |
| O=c1[nH]cccc1Cn1c(=O)nc(Nc2ccc(OCC(F)F)cc2Cl)n(Cc2cc(F)c(F)c(F)c2)c1=O [Compound I-0095] | 1 to 10 µM | < 0.1 µM |  |  |
| CCn1cc2cc(Nc3nc(=O)n(-c4cncc(C)c4)c(=O)n3Cc3cc(C#N)ccc3C)c(Cl)cc2n1 [II-0493] |  |  | 0.068 µM | 0.0013 µM |
| CNc1nc2cc(Cl)c(Nc3nc(=O)n(-c4cncc(Cl)c4)c(=O)n3Cc3ccc(F)c(C#N)c3)cc2o1 [II-0516] | 1 to 10 µM | < 0.1 µM |  |  |
| Cn1cnc(Cn2c(=O)nc(Nc3cc4cn(C)nc4cc3Cl)n(Cc3cc(F)c(F)c(F)c3)c2=O)n1 [Compound I-0421] | < 1 µM | < 0.1 µM | 0.45 µM | 0.01 µM |
| Cc1cncc(-n2c(=O)nc(N(C)C3CCCCC3)n(Cc3cc(F)c(F)c(F)c3)c2=O)c1 [II-0372] |  |  | 6.52 µM | 3.4 µM |
| COC(=O)Nc1nc2cc(Cl)c(Nc3nc(=O)n(-c4cncc(C)c4)c(=O)n3Cc3cc(Cl)c(F)cn3)cc2s1 [II-0079] | < 1 µM | < 0.1 µM |  |  |
| CNc1nc2cc(F)c(Nc3nc(=O)n(Cc4ncn(C)n4)c(=O)n3Cc3cc(F)c(F)cc3F)cc2s1 [II-0400] | 1 to 10 µM | < 0.1 µM |  |  |
| Cc1cncc(-n2c(=O)nc(Nc3cc4cn(C)nc4cc3Cl)n(Cc3cc(Cl)ccc3Cl)c2=O)c1 [II-0582] | < 1 µM | < 0.1 µM |  |  |
| CCn1cc2cc(Nc3nc(=O)n(-c4cncc(Cl)c4)c(=O)n3Cc3cc(C#N)c(F)cc3C)ccc2n1 [II-0559] |  |  | 0.246 µM | 0.0064 µM |
| Cn1cc2cc(Nc3nc(=O)n(-c4cncc(Cl)c4)c(=O)n3Cc3cc(F)c(F)c(F)c3)ccc2n1 [II-0609] |  |  | 2.04 µM | 0.12 µM |
| Cc1nc2cc(Cl)c(Nc3nc(=O)n(-c4cccc5ccccc45)c(=O)n3Cc3cc(F)c(F)c(F)c3)cc2n1C [Compound I-0456] | 1 to 10 µM | < 0.1 µM |  |  |
| COc1ccc(Nc2nc(=O)n(-c3cc(C)cnn3)c(=O)n2Cc2cc(F)c(F)c(F)c2)cc1 [II-0392] |  |  | 20.8 µM | 1 µM |
| Cc1cncc(-n2c(=O)nc(Nc3cc4cn(CC(F)F)nc4cc3Cl)n(Cc3cc(C#N)c(F)cn3)c2=O)c1 [II-0533] | 1 to 10 µM | < 0.1 µM |  |  |
| CNc1nc2cc(F)c(Nc3nc(=O)n(-c4cncc(C)c4)c(=O)n3Cc3ccc(F)c(C#N)c3)cc2s1 [II-0283] | < 1 µM | < 0.1 µM |  |  |
| COCCn1cc2cc(Nc3nc(=O)n(Cc4ccc[nH]c4=O)c(=O)n3Cc3cc(F)c(F)c(F)c3)c(Cl)cc2n1 [Compound I-0285] | 1 to 10 µM | < 0.1 µM |  |  |
| Cc1cncc(-n2c(=O)nc(Nc3cc4sc(NCC(F)(F)F)nc4cc3Cl)n(Cc3ccc(F)c(C#N)c3)c2=O)c1 [II-0526] | 1 to 10 µM | < 0.1 µM |  |  |
| CNc1cncc(-n2c(=O)nc(Nc3cc4cn(C)nc4cc3Cl)n(Cc3cc(F)c(F)c(Cl)c3)c2=O)c1 [II-0601] | < 1 µM | < 0.1 µM |  |  |
